In patent US20120322661A1, “Organized Liquid Mixture” (priority 2010, published 2012):

Experiment: Conductivity measurement for micellar entrapment of fomesafen sodium
Format: physicochemical
Conditions: aqueous solution
Experimental: A series of the experiments were conducted to establish that a combination of a sorbitan ester alkoxylate with a vegetable oil ethoxylate provided a stable micellar solubilization of the water soluble herbicide fomesafen sodium. Studies were also designed to confirm that the fomesafen sodium present within the formulation was partitioned between the micro-domains of the aqueous phase and the micellar oil phase.
The conductivity of an aqueous solution of fomesafen sodium was measured at different concentrations of fomesafen sodium. The results were plotted on a graph with measured conductivity plotted on Y-axis and the corresponding concentration on the X-axis. It was observed that the conductivity increased with the salt concentration and dropped suddenly above 0.45 g/L. It is believed that at this inflection concentration, fomesafen sodium self-aggregated to form an aggregated structure.
In another series of experiments, the formulations according to the present invention exemplified by examples 1 and 2 were tested at various concentrations of fomesafen sodium active ingredients and the resulting conductivity was measured. The results were plotted on a graph with measured conductivity plotted on Y-axis and the corresponding concentration on the X-axis. […]

## CS(=O)(=O)N=C([O-])c1cc(Oc2ccc(C(F)(F)F)cc2Cl)ccc1[N+](=O)[O-].[Na+] [fomesafen sodium, sodium (EZ)-5-(2-chloro-α,α,α-trifluoro-p-tolyloxy)-N-mesyl-2-nitrobenzenecarboximidate]
  Concentration above which conductivity dropped suddenly (inflection concentration, self-aggregation): above 0.45 g/L
